Measured values reported in article PMC11617668, “Developing Allosteric Inhibitors of SARS‐CoV‐2 RNA‐Dependent RNA Polymerase” (Chemmedchem, 2024).
Converted amounts (≈) assume the structure as drawn.

Legend:
[1] = molecular target: SARS‐CoV‐2 RdRp complex (nsp12, nsp7, nsp8) (Severe acute respiratory syndrome coronavirus 2, UniProt P0DTD1); test: Fluorescence-based RdRp polymerase assay (SYBR Green I RNA extension); format: biochemical; settings: for remaining activity at 10 µM: 50 min, read-out: residual activity (RA) of the SARS‐CoV‐2 RdRp complex; for residual activity (RA) of the SARS‐CoV‐2 RdRp complex: 10 μM screening, AUC with compound / AUC of non-inhibited reaction x 100
SARS‐CoV‐2 [2] = settings: cited from earlier work
SARS‐CoV‐2 [3] = settings: Severe acute respiratory syndrome coronavirus 2, Calu-3, 72 h
Procedure: (§1) Briefly, two‐fold fold serial dilutions of compounds were added in triplicate in a 384‐well plate with 15,000 Calu‐3 cells in DMEM medium with 2 % FBS, 100 U of penicillin/ml and 100 μg of streptomycin/ml (all Merck). After 1 h incubation SARS‐CoV‐2 was added at multiplicity of infection 0.01. Following three days incubation at 37 °C in 5 % CO2 the cell viability was determined by addition of XTT solution (Sigma‐Aldrich) for 4 h and the absorbance was measured using EnVision plate reader (Perkin Elmer). Drug concentrations required to reduce viral cytopathic effect by 50 % (EC50) were calculated using nonlinear regression from plots of percentage cell viability versus log10 drug concentration using GraphPad Prism v.9.0.0 (GraphPad Software). Cytotoxicity was evaluated by incubating the same two‐fold serial dilutions of each compound with Calu‐3 cells as above but without virus. Following three days of incubation at 37 °C in 5 % CO2, the cell viability was determined by the addition of XTT solution as above. The compound concentrations resulting in a 50 % reduction of absorbance (CC50) were calculated from plots of the percentage of absorbance versus log10 drug concentration as above.

[4] = Kinetic solubility test in enzymatic assay medium; format: physicochemical; settings: aqueous HEPES buffer with 5 % DMSO, pH 8, aqueous with cosolvent or surfactant or cyclodextrin, kinetic from dmso stock
Procedure: Kinetic solubility tests were performed in the medium used for the enzymatic assay–aqueous solution of HEPES buffer with 5 % DMSO. […] This poor aqueous solubility represents a big hurdle in the development of potential antivirals and the improvement of solubility will be considered in further structural optimization efforts of this class of compounds.

in vitro = settings: human
Procedure: as §1

Row | Compound | remaining activity at 10 µM [1] [%] | further results
1 | O=C(Nc1cccc([N+](=O)[O-])c1)Nc1cnccn1 [Compound 39] | 100 | 
2 | COc1ccc(NC(=O)Nc2cc(C(=O)OC(C)C)cc(C(=O)OC(C)C)c2)c(OC)c1 [Compound 27] | 100 | 
3 | O=C(Nc1cccc([N+](=O)[O-])c1)Nc1cccc([N+](=O)[O-])c1 [Compound 18, 1,3‐Bis(3‐nitrophenyl)urea] | 100 | 
4 | CCNS(=O)(=O)c1ccc(NC(=O)Nc2cccc([N+](=O)[O-])c2)cc1 [Compound 35] | 100 | 
5 | O=C(Nc1ccc(Cl)cc1)Nc1cccc([N+](=O)[O-])c1 [Compound 33] | 100 | 
6 | COc1cc(NC(=O)Nc2cccc([N+](=O)[O-])c2)cc(OC)c1 [Compound 38] | 100 | 
7 | 1‐(3,5‐Dichlorophenyl)‐3‐(3‐(Trifluoromethyl)phenyl)guanidine Hydrochloride [Compound 54] |  | residual activity (RA) of the SARS‐CoV‐2 RdRp complex [1]: 100%
8 | O=C(Nc1ccc([N+](=O)[O-])cc1)Nc1ccccc1Cc1ccccc1 [Compound 42] | 63 | 
9 | CNC(=O)c1cc(Oc2ccc(NC(=O)Nc3ccc(Cl)c(C(F)(F)F)c3)cc2)ccn1 [sorafenib] |  | cell infection (SARS‐CoV‐2 [2]): strongly inhibited cell infection
10 | COC(=O)c1cc(NC(=O)Nc2cccc(C(=O)O)c2)cc(C(=O)OC)c1 [Compound 13, 3‐(3‐(3,5‐Bis(methoxycarbonyl)phenyl)ureido)benzoic Acid] | 100 | 
11 | O=C(Nc1cc(Cl)cc(Cl)c1)Nc1cccc(C(F)(F)F)c1 [Compound 47, 1‐(3,5‐Dichlorophenyl)‐3‐(3‐(Trifluoromethyl)phenyl)urea] | 45 | EC50 (SARS‐CoV‐2 [3]): > 0.49 µM; solubility kinetic [4]: < 2 µM; CC50 at 3 days (in vitro): 0.49 µM
12 | CC(=O)Nc1cccc(NC(=O)Nc2cccc([N+](=O)[O-])c2)c1 [Compound 37] | 100 | 
13 | O=C(Nc1cccc([N+](=O)[O-])c1)Nc1cc(C(F)(F)F)cc(C(F)(F)F)c1 [Compound 19, 1‐(3,5‐Bis(trifluoromethyl)phenyl)‐3‐(3‐Nitrophenyl)urea] | 62 | EC50 (SARS‐CoV‐2 [3]): > 3 µM; CC50 at 3 days (in vitro): 3.4 µM
14 | O=C(Nc1ccc(C(=O)O)cc1)Nc1cccc([N+](=O)[O-])c1 [Compound 34] | 100 | 
15 | FC(F)(F)c1ccc2nc(-c3nc4cc(Cl)c(Cl)cc4[nH]3)[nH]c2c1 [Compound 55, 5,6‐Dichloro‐6′‐(Trifluoromethyl)‐1 H ,1′H‐2,2′‐Bibenzo[d]imidazole] | 42 | EC50 (SARS‐CoV‐2 [3]): > 2.1 µM; solubility kinetic [4]: 2.9 ± 0.6 µM (≈ 1.08 µg/mL); CC50 at 3 days (in vitro): 2.1 µM
16 | O=C(Nc1ccc([N+](=O)[O-])cc1)Nc1cc(Cl)cc(Cl)c1 [Compound 41] | 40 | 
17 | COC(=O)c1cc(NC(=O)Nc2ccc(S(N)(=O)=O)cc2)cc(C(=O)OC)c1 [Compound 8, Dimethyl 5‐(3‐(4‐Sulfamoylphenyl)ureido)isophthalate] | 100 | 
18 | COC(=O)c1cc(NC(=O)Nc2ccccc2)cc(C(=O)OC)c1 [Compound 23] | 100 | 
19 | COC(=O)c1cc(NC(=O)Nc2cccc(C(F)(F)F)c2)cc(C(=O)OC)c1 [Compound 9, Dimethyl 5‐(3‐(3‐Trifluoromethylphenyl)ureido)isophthalate] | 70 | EC50 (SARS‐CoV‐2 [3]): > 10 µM; CC50 at 3 days (in vitro): 10.6 µM
20 | COC(=O)c1cc(NC(=O)Nc2cccc(C#N)c2)cc(C(=O)OC)c1 [Compound 6, Dimethyl 5‐(3‐(3‐Cyanophenyl)ureido)isophthalate] | 100 | 
21 | COC(=O)c1ccc(C(=O)OC)c(NC(=O)Nc2cccc([N+](=O)[O-])c2)c1 [Compound 36] | 100 | 
22 | COC(=O)c1cc(NC(=O)Nc2ccc([N+](=O)[O-])cc2)cc(C(=O)OC)c1 [Compound 22] | 50 | 
23 | O=C(Nc1cc(C(=O)O)cc(C(=O)O)c1)Nc1cccc([N+](=O)[O-])c1 [Compound 21, 5‐(3‐(3‐Nitrophenyl)ureido)isophthalic acid] | 100 | residual activity (RA) of the SARS‐CoV‐2 RdRp complex [1]: complete loss of activity
24 | COC(=O)c1cc(NC(=O)Nc2cccc([N+](=O)[O-])c2)cc(C(=O)O)c1 [Compound 20, 3‐(Methoxycarbonyl)‐5‐(3‐(3‐Nitrophenyl)ureido)benzoic Acid] | 100 | residual activity (RA) of the SARS‐CoV‐2 RdRp complex [1]: complete loss of activity
25 | O=C(Nc1cc(Cl)cc(Cl)c1)Nc1nc2ccc(C(F)(F)F)cc2[nH]1 [Compound 60, 1‐(3,5‐Dichlorophenyl)‐3‐(6‐(Trifluoromethyl)‐1H‐Benzo[d]imidazol‐2‐yl)urea] | 28 | EC50 (SARS‐CoV‐2 [3]): > 0.65 µM; solubility kinetic [4]: < 2.1 µM; CC50 at 3 days (in vitro): 0.65 µM

Row | Compound | remaining activity at 10 µM [1] [%] | further results
26 | O=C(Nc1ccccc1)Nc1ccc(-c2ccc(C(=O)[C@@H]3CCC[C@H]3C(=O)O)cc2)cc1 [Compound A922500, A922500, reference compound] | 100 | activity in cell assays against the virus (SARS‐CoV‐2 [2]): active
27 | O=C(Cc1ccc([N+](=O)[O-])cc1)Nc1cc(Cl)cc(Cl)c1 [Compound 49, N‐(3,5‐Dichlorophenyl)‐2‐(4‐Nitrophenyl)acetamide] | 100 | 
28 | O=C(Nc1cccc([N+](=O)[O-])c1)Nc1ccc(Cl)c(C(F)(F)F)c1 [Compound 29] | 58 | 
29 | COC(=O)c1cc(NC(=O)Nc2cccc([N+](=O)[O-])c2)cc(C(=O)OC)c1 [Compound 17, Dimethyl 5‐(3‐(3‐Nitrophenyl)ureido)isophthalate] | 51 | 
30 | O=C(Nc1cc(Cl)cc(Cl)c1)C(=O)Nc1cccc(C(F)(F)F)c1 [Compound 53, N ^1‐(3,5‐Dichlorophenyl)‐N ^2‐(3‐(Trifluoromethyl)phenyl)oxalamide] | 100 | 
31 | O=C(Nc1cccc([N+](=O)[O-])c1)Nc1ccccc1Cc1ccccc1 [Compound 31] | 78 | 
32 | COC(=O)c1cc(NC(=O)Nc2ccc(C#N)cc2)cc(C(=O)OC)c1 [Compound 7, Dimethyl 5‐(3‐(4‐Cyanophenyl)ureido)isophthalate] | 100 | 
33 | CC(=O)c1cccc(NC(=O)Nc2cc(C(=O)OC(C)C)cc(C(=O)OC(C)C)c2)c1 [Compound 28] | 100 | 
34 | O=[N+]([O-])c1cccc(NC(=S)Nc2ccccc2Cc2ccccc2)c1 [Compound 44] | 100 | 
35 | COC(=O)c1cc(NC(=O)Nc2cccc(F)c2)cc(C(=O)OC)c1 [Compound 26] | 100 | 
36 | O=C(Nc1ccc(C(F)(F)F)cc1)Nc1cccc([N+](=O)[O-])c1 [Compound 32] | 100 | 
37 | O=C(Nc1cccc([N+](=O)[O-])c1)Nc1ccc2ccccc2c1 [Compound 30] | 73 | 
38 | CCOC(=O)c1cccc(NC(=O)Nc2cc(C(=O)OC)cc(C(=O)OC)c2)c1 [Compound 10, Dimethyl 5‐(3‐(3‐(Ethoxycarbonyl)phenyl)ureido)isophthalate] | 100 | 
39 | COC(=O)c1cc(NC(=O)Nc2ccc(C)cc2)cc(C(=O)OC)c1 [Compound 25] | 100 | 
40 | O=C(Nc1cccc([N+](=O)[O-])c1)NC1CC1 [Compound 40] | 100 | 
41 | CNC(=O)c1cc(Oc2ccc(NC(=O)Nc3ccc(Cl)c(C(F)(F)F)c3)c(F)c2)ccn1 [regorafenib, reference compound] | 76 | activity in cell assays against the virus (SARS‐CoV‐2 [2]): active
42 | COC(=O)c1cc(NC(=O)Nc2cc(C(F)(F)F)cc(C(F)(F)F)c2)cc(C(=O)OC)c1 [Compound 11, Dimethyl 5‐(3‐(3,5‐Bis(trifluoromethyl)phenyl)ureido)isophthalate] | 65 | EC50 (SARS‐CoV‐2 [3]): > 5 µM; CC50 at 3 days (in vitro): 5.1 µM
43 | O=[N+]([O-])c1cccc(NC(=S)Nc2ccc(Cl)c(C(F)(F)F)c2)c1 [Compound 43] | 77 | 
44 | O=C(Nc1cc(Cl)cc(Cl)c1)c1nc2ccc(C(F)(F)F)cc2[nH]1 [Compound 58, N‐(3,5‐Dichlorophenyl)‐6‐(Trifluoromethyl)‐1H‐Benzo[d]imidazole‐2‐Carboxamide] | 100 | 
45 | O=C(Cc1cc(Cl)cc(Cl)c1)Nc1ccc([N+](=O)[O-])cc1 [Compound 52, 2‐(3,5‐Dichlorophenyl)‐N‐(4‐Nitrophenyl)acetamide] | 100 | 
46 | 3,4‐Dichloro‐N‐(6‐(Trifluoromethyl)‐1H‐Benzo[d]imidazol‐2‐yl)benzamide [Compound 57] |  | residual activity (RA) of the SARS‐CoV‐2 RdRp complex [1]: 100%
47 | COC(=O)c1cc(NC(=O)Nc2cc([N+](=O)[O-])cc([N+](=O)[O-])c2)cc(C(=O)OC)c1 [Compound 12, Dimethyl 5‐(3‐(3,5‐Dinitophenyl)ureido)isophthalate] | 100 | 
48 | CCCCNC(=O)Nc1cc(C(=O)OC)cc(C(=O)OC)c1 [Compound 5, Dimethyl 5‐(3‐Butylureido)isophthalate] | 100 | 
49 | COC(=O)c1cc(NC(=O)Nc2ccncc2)cc(C(=O)OC)c1 [Compound 14, Dimethyl 5‐(3‐(Pyridin‐4‐yl)ureido)isophthalate] | 100 | 
50 | COc1cc(NC(=O)Nc2cccc(CNC(=O)O[C@H]3CCOC3)c2)ccc1-c1cnco1 [merimepodib, reference compound] | 100 | viral replication (SARS‐CoV‐2 [2]; in combination with remdesivir): completely suppress viral replication
